Data as given in the supplement of paper PMC10307832.

Key:
Test in all cases: relative viability (nuclei count vs DMSO), 5 days (fraction); higher = more cells survive
[1] = compound: C=CCn1c(=O)c2cnc(Nc3ccc(N4CCN(C)CC4)cc3)nc2n1-c1cccc(C(C)(C)O)n1 [Adavosertib] + Cc1cc(Nc2cc(N3CCN(C)CC3)nc(Sc3ccc(NC(=O)C4CC4)cc3)n2)n[nH]1 [Tozasertib] (partner 0.1 µM)
How it was run: (§1)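 Five library-drug doses in √10 steps were combined with a fixed anchor-drug dose, or a single drug was given alone, by pin tool to lung cancer cell lines in 1536-well plates the day after seeding. Nuclei were stained and counted after 5 days. Relative viability is the nuclei count in treated wells over that in vehicle wells, taken as the median of duplicate plates.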

[2] = compound: COc1nc(N)nc2c1ncn2[C@@H]1O[C@H](CO)[C@@H](O)[C@@H]1O [Nelarabine] + CC(C)C[C@H](NC(=O)[C@H](Cc1ccccc1)NC(=O)c1cnccn1)B(O)O [Bortezomib] (partner 0.002 µM)
How it was run: as §1

[3] = compound: COc1nc(N)nc2c1ncn2[C@@H]1O[C@H](CO)[C@@H](O)[C@@H]1O [Nelarabine] + COc1cc2c(Oc3ccc(NC(=O)C4(C(=O)Nc5ccc(F)cc5)CC4)cc3F)ccnc2cc1OCCCN1CCOCC1 [Foretinib] (partner 0.25 µM)
How it was run: as §1

[4] = compound: COc1nc(N)nc2c1ncn2[C@@H]1O[C@H](CO)[C@@H](O)[C@@H]1O [Nelarabine] + C[C@]1(O)C[C@@H](c2nc(-c3ccc4ccc(-c5ccccc5)nc4c3)c3c(N)nccn32)C1 [Linsitinib] (partner 1 µM)
How it was run: as §1

Cell Line	relative viability ([1]; first compound 0.01 µM)	relative viability ([1]; first compound 0.03162 µM)	relative viability ([1]; first compound 0.1 µM)	relative viability ([1]; first compound 0.3162 µM)	relative viability ([2]; first compound 0.01 µM)	relative viability ([2]; first compound 0.03162 µM)	relative viability ([2]; first compound 0.1 µM)	relative viability ([2]; first compound 0.3162 µM)	relative viability ([2]; first compound 1 µM)	relative viability ([3]; first compound 0.01 µM)	relative viability ([3]; first compound 0.1 µM)	relative viability ([3]; first compound 0.3162 µM)	relative viability ([3]; first compound 1 µM)	relative viability ([4]; first compound 0.01 µM)	relative viability ([4]; first compound 0.03162 µM)	relative viability ([4]; first compound 0.1 µM)	relative viability ([4]; first compound 0.3162 µM)	relative viability ([4]; first compound 1 µM)	relative viability ([3]; first compound 0.03162 µM)
201T	0.91	0.999	1.01	0.979	1.11	1.02	1.12	1.15	1.08	1.46	1.04	1.03	1.05	1.18	0.942	1.07	0.958	0.96	
A549										1.11	0.972	1.01	0.98	0.714	0.622	0.585	0.523	0.642	0.853
A-427	0.175	0.186	0.219	0.164	1.01	0.846	1.01	0.895	0.961	1.11	0.972	1.13	0.954	1.03	1.12	1.11	1.15	1.06	0.97
ABC-1	0.208	0.161	0.166	0.145	0.28	0.319	0.251	0.245	0.297	1.11	0.931	1.05	0.94	0.955	1.19	0.83	0.809	0.723	0.862
BEN	0.598	0.474	0.494	0.629	0.915	0.652	0.887	1.19	0.969	0.583	0.655	0.638	0.556	1.27	0.818	1	1.04	1.07	0.744
CAL-12T	0.394	0.351	0.321	0.18	1.11	0.973	1.31	0.958	0.959	1.3	1.15	1.09	1.04	0.857	0.931	0.809	0.778	0.832	1.14
COR-L23	0.24	0.236	0.23	0.162	1.33	1.08	1.08	0.942	0.983	1.23	0.917	0.992	0.964	1.12	0.996	1	0.911	1.06	1.02
COR-L 105	0.353	0.374	0.385	0.319	1.02	0.912	0.683	0.678	0.979	0.953	1.26	1.08	0.967	0.863	1.03	0.95	1.04	0.984	0.991
Calu-6					1.1		1.05	0.947	1.08	1.01	0.9	0.959	0.928	1.22	1.07	0.897	0.997	1	0.826
ChaGo-K-1	0.228	0.243	0.229	0.228	0.997	0.85	1.26	0.93	0.925	0.971	0.82	0.947	0.882						0.826
EBC-1					0.559	0.525	0.548	0.55	0.549	0.122	0.146	0.0922	0.105	0.99	1.13	0.929	0.91	0.939	0.111
EKVX	0.424	0.451	0.436	0.469	1.35	0.853	1.05	1.25	1.14	0.966	0.732	0.614	0.777	1.08	0.849	0.851	1.19	0.941	0.803
EMC-BAC-2	0.331	0.318	0.261	0.28	1.24	1.06	1.05	1.15	1.04	1.06	0.913	0.975	0.963	0.958	0.781	0.83	0.831	0.859	1
EPLC-272H	0.281	0.315	0.197	0.277	1.04	0.925	0.823	0.887	0.981	0.81	0.655	0.66	0.584	1.35	1.11	1.18	1.09	1.21	0.503
H3255	0.63	0.721	0.421	0.559	1.06	0.868	0.897	0.722	0.696		0.828	0.938	0.923	1.31	1.09	1.12	0.885	0.957	1.12
HARA	0.125	0.128	0.111	0.0667	1.19	1.08	1.16	1.21	1.02	1	0.834	1.23	1.03	1.29	0.814	0.771	1.18	0.941	1.07
HCC-15	0.385	0.409	0.481	0.444	1.33	0.917	1.18	1.11	1.14	1.16	0.983	1.12	0.992	1.06	0.841	0.904	0.87	1	0.996
HCC-44	1.02	0.951	1.24	1.15	1.05	0.845	0.866	0.924	0.924					0.712	0.678	0.678	0.657	0.691	
HCC-78	0.589	0.348	0.351	0.464	0.771	0.497		0.584	0.539	0.607		0.527	0.617	0.627	0.506		0.536	0.574	0.538
HCC-366	0.137	0.132	0.145	0.169	1.95	0.968	1.33	1.23	1.13	1.03	0.942	0.974	0.895	1.21	0.427	0.551	0.785	0.769	0.717
HCC-827	0.402	0.415	0.46	0.437	1.09	0.956	1.02	0.914	0.783	1.01	0.87	0.822	0.716	0.922	0.826	0.877	0.772	0.666	0.925

Cell Line	relative viability ([1]; first compound 0.01 µM)	relative viability ([1]; first compound 0.03162 µM)	relative viability ([1]; first compound 0.1 µM)	relative viability ([1]; first compound 0.3162 µM)	relative viability ([2]; first compound 0.01 µM)	relative viability ([2]; first compound 0.03162 µM)	relative viability ([2]; first compound 0.1 µM)	relative viability ([2]; first compound 0.3162 µM)	relative viability ([2]; first compound 1 µM)	relative viability ([3]; first compound 0.01 µM)	relative viability ([3]; first compound 0.1 µM)	relative viability ([3]; first compound 0.3162 µM)	relative viability ([3]; first compound 1 µM)	relative viability ([4]; first compound 0.01 µM)	relative viability ([4]; first compound 0.03162 µM)	relative viability ([4]; first compound 0.1 µM)	relative viability ([4]; first compound 0.3162 µM)	relative viability ([4]; first compound 1 µM)	relative viability ([3]; first compound 0.03162 µM)
HOP-62	0.356	0.409	0.414	0.329	1.46	0.392	1.11	1.18	1.02	1.08	1.12	1.05	1.05	0.933	0.967	1.11	0.872	0.801	1
IA-LM					0.989	1.04	0.986	0.927	0.748	1.37	1.23	1.18	1.27	0.847	0.838	0.68	0.737	0.667	1.01
LC-2-ad	0.478	0.419	0.445	0.442	1.08	1.03	0.972	1.26	1.07	1	0.848	0.885	0.858	0.919	0.832	0.823	0.758	0.797	1.01
LCLC-97TM1	0.22	0.245	0.195	0.383	1.05		0.716	0.634	0.205	0.996	1.01	0.922	0.935	0.222	0.163	0.242	0.225	0.186	0.792
LCLC-103H	0.5	0.501	0.572	0.451	1.36	1.05	1.01	1.13	1.1	0.958	0.72	0.815	0.79	1.22	1.11	1.08	1.02	1.11	0.825
LK-2	0.172	0.2	0.171	0.19						1.3	1.19	1.17	1.22	1.24		0.608	0.691	0.673	
NCI-H358	0.104	0.0953	0.102	0.0852						0.854	0.622	0.854	0.762	0.891	0.613	0.694	0.865	0.74	0.666
NCI-H522	0.522	0.58	0.508	0.581															
NCI-H1299					1.08	1.09	1.05	1.06	1.01	1.15	1.13	1.12	1.13	1.19	1.02	1.05	1.04	0.963	1.08
NCI-H1395	0.757	0.822	0.853	0.733						1.07	1.08	1.01	1.01	1.1	1.15	1.17	0.974	1.2	0.923
NCI-H1563					0.943	0.903	0.766	0.84	0.908	0.809	0.811	0.955	0.905	1.23	1.22	1.18	1.19	1.18	0.967
NCI-H1648	0.545	0.613	0.386	0.545															
NCI-H1650	0.415	0.464	0.563	0.299	0.173	0.213	0.231	0.196	0.233	1.13	1.11	1.37	1.19						1.16
NCI-H1703					0.364	0.162	0.405	0.303	0.448	0.388	0.332	0.289	0.395	1.05	0.66	0.666	0.541	0.834	0.405
NCI-H1792					1.28		1.05	1.17	0.85					0.621		0.548	0.702	0.716	
NCI-H1793	0.352	0.386	0.4	0.253						0.84	0.709	0.731	0.713	1.3	0.801	0.863	0.724	0.84	0.747
NCI-H1944	0.227	0.241	0.23	0.269						1.09	0.776	0.917	0.834	1.28	1.16	1.38	1.21	1.08	0.896
NCI-H2170	0.675	0.683	0.688	0.735						1.21	0.934	1.02	1.07						0.974
NCI-H2342	0.548	0.507	0.55	0.525						0.974	0.875	0.906	1.01						0.887
SK-MES-1	0.898	0.929	0.92	0.285						1.07	0.946	0.949	1.18	1.15	1.09	1.03	1.1	1.08	0.932
SW 900		0.533	0.62	0.538						1.02	0.934	0.947	0.832						0.749
